Assay results as given in ChEMBL document CHEMBL3132757, “A new class of fluorinated 5-pyrrolidinylsulfonyl isatin caspase inhibitors for PET imaging of apoptosis” (Medchemcomm, 2013).
pIC50: −log10 of the molar value.

Experiments:
Caspase-1 = molecular target: T1, Caspase-1 (Homo sapiens, UniProt P29466); experiment: Inhibition of recombinant human caspase-1 expressed in Escherichia coli using Ac-YVAD-AMC as substrate preincubated for 30 mins before substrate addition measured after 2 hrs
T1 sequence (P29466 whole entry): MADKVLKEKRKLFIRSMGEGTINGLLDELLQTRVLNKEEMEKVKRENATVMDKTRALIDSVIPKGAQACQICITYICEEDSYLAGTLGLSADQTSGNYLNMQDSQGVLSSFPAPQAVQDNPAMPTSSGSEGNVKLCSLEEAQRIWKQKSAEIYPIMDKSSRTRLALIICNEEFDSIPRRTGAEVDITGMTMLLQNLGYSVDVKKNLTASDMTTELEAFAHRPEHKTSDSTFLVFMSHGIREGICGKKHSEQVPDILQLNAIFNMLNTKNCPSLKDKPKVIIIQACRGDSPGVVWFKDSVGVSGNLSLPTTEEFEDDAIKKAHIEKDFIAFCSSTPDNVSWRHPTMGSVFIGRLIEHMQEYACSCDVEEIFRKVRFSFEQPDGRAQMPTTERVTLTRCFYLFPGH

Caspase-6 = molecular target: T2, Caspase-6 (Homo sapiens, UniProt P55212); experiment: Inhibition of recombinant human caspase-6 expressed in Escherichia coli using Ac-VEID-AMC as substrate preincubated for 30 mins before substrate addition measured after 2 hrs
T2 sequence (P55212 whole entry): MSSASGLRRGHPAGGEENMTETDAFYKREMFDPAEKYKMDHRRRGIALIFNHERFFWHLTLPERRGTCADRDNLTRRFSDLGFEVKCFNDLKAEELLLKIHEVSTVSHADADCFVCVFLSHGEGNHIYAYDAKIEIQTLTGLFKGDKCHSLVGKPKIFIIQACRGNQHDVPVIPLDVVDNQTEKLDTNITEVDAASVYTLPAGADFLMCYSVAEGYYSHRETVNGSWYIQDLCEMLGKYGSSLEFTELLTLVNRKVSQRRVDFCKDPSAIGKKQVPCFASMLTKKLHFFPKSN

Caspase-8 = Caspase-8 (Homo sapiens, UniProt Q14790); experiment: Inhibition of recombinant human caspase-8 expressed in Escherichia coli using Ac-IETD-AMC as substrate preincubated for 30 mins before substrate addition measured after 2 hrs
[1] = Lipophilicity, log P of the compound by HPLC method; format: physicochemical
Caspase-3 = molecular target: T3, Caspase-3 (Homo sapiens, UniProt P42574); experiment: Inhibition of recombinant human caspase-3 expressed in Escherichia coli using Ac-DEVD-AMC as substrate preincubated for 30 mins before substrate addition measured after 2 hrs
T3 sequence (P42574 whole entry): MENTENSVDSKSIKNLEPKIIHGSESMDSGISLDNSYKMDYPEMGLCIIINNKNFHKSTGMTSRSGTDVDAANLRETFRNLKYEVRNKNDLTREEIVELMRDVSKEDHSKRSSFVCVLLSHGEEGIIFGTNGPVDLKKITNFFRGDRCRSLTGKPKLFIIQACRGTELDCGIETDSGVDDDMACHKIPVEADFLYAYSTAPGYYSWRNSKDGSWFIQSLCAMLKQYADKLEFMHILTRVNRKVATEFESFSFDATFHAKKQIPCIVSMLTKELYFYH

Caspase-7 = molecular target: T4, Caspase-7 (Homo sapiens, UniProt P55210); experiment: Inhibition of recombinant human caspase-7 expressed in Escherichia coli using Ac-DEVD-AMC as substrate preincubated for 30 mins before substrate addition measured after 2 hrs
T4 sequence (P55210 whole entry): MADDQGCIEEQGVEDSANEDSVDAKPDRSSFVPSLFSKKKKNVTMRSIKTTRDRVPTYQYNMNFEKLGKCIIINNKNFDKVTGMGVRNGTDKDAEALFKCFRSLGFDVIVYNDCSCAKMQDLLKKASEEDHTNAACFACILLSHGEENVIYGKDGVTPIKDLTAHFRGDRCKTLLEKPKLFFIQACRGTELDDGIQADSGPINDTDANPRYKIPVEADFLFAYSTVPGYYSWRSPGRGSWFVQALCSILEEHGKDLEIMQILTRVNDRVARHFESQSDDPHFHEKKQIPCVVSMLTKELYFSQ

Chain of Caspase-8 (Q14790 217-374 limits assumed): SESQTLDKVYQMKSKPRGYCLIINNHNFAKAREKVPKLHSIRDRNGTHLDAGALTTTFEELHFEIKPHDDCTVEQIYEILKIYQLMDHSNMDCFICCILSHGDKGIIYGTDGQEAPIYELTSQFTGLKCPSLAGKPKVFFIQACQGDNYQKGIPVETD
Chain of Caspase-8 (Q14790 385-479 limits assumed): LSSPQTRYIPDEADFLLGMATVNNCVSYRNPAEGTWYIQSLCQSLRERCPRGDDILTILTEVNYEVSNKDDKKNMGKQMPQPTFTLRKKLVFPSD

| pIC50 (Caspase-1) | pIC50 (Caspase-6) | pIC50 (Caspase-8) | logP [1] | pIC50 (Caspase-3) | pIC50 (Caspase-7) | Compound |
| --- | --- | --- | --- | --- | --- | --- |
| 5.33 | < 5.00 | < 5.00 | 2.28 | 7.89 | 7.78 | O=C1C(=O)N(Cc2cccc([N+](=O)[O-])c2)c2ccc(S(=O)(=O)N3CCC[C@H]3CF)cc21 |
| < 5.00 | < 5.00 | < 5.00 | 2.96 | 8.15 | 7.85 | O=C1C(=O)N(Cc2ccc(Cl)cc2)c2ccc(S(=O)(=O)N3CCC[C@H]3CF)cc21 |
| < 5.00 | < 5.00 | < 5.00 | 2.5 | 7.82 | 7.85 | O=C1C(=O)N(Cc2ccc(F)cc2)c2ccc(S(=O)(=O)N3CCC[C@H]3CF)cc21 |
| < 5.00 | < 5.00 | < 5.00 | 2.2 | 7.75 | 8.21 | COC[C@@H]1CCCN1S(=O)(=O)c1ccc2c(c1)C(=O)C(=O)N2Cc1ccc(OC)cc1 |
| < 5.00 | < 5.00 | < 5.00 | 2.65 | 7.86 | 8.02 | COc1ccc(CN2C(=O)C(=O)c3cc(S(=O)(=O)N4CCC[C@H]4CF)ccc32)cc1 |
| < 5.00 | < 5.00 | < 5.00 | 2.08 | 8.08 | 8.34 | COC[C@@H]1CCCN1S(=O)(=O)c1ccc2c(c1)C(=O)C(=O)N2Cc1ccc(OCCF)cc1 |
| 5.73 | < 5.00 | < 5.00 | 1.94 | 8.36 | 7.60 | O=C1C(=O)N(Cc2nnnn2Cc2ccccc2)c2ccc(S(=O)(=O)N3CCC[C@H]3CF)cc21 |
| < 5.00 | < 5.00 | < 5.00 | 2.39 | 8.20 | 7.95 | O=C1C(=O)N(Cc2ccc([N+](=O)[O-])cc2)c2ccc(S(=O)(=O)N3CCC[C@H]3CF)cc21 |
| < 5.00 | < 5.00 | < 5.00 | 2.33 | 7.72 | 7.38 | O=C1C(=O)N(Cc2ccc(OCCF)cc2)c2ccc(S(=O)(=O)N3CCC[C@H]3CF)cc21 |
| < 5.00 | < 5.00 | < 5.00 | 3.11 | 8.21 | 7.80 | O=C1C(=O)N(Cc2ccc(Br)cc2)c2ccc(S(=O)(=O)N3CCC[C@H]3CF)cc21 |
| < 5.00 | 5.42 | < 5.00 | 3.31 | 8.09 | 8.27 | O=C1C(=O)N(Cc2ccc(I)cc2)c2ccc(S(=O)(=O)N3CCC[C@H]3CF)cc21 |
| < 5.00 | < 5.00 | < 5.00 | 1.19 | 5.66 | 5.45 | O=C1C(=O)N(Cc2ccc(OCCF)cc2)c2ccc(S(=O)(=O)N3CC4CNCC4C3)cc21 (stereo unspecified) |
| < 5.00 | < 5.00 | < 5.00 | 3.78 | 8.21 | – | O=C1C(=O)N(Cc2ccc(OCCF)cc2)c2ccc(S(=O)(=O)N3CCC[C@H]3COc3ccccc3)cc21 |
| 6.17 | 5.29 | < 5.00 | 2.28 | 8.51 | 7.70 | O=C1C(=O)N(Cc2ccccc2[N+](=O)[O-])c2ccc(S(=O)(=O)N3CCC[C@H]3CF)cc21 |
| 5.77 | < 5.00 | < 5.00 | 3.21 | 7.94 | 7.66 | O=C1C(=O)N(Cc2cccc(I)c2)c2ccc(S(=O)(=O)N3CCC[C@H]3CF)cc21 |
| 6.28 | 5.41 | < 5.00 | 3.25 | 8.02 | 7.62 | O=C1C(=O)N(Cc2ccccc2I)c2ccc(S(=O)(=O)N3CCC[C@H]3CF)cc21 |
| < 5.00 | < 5.00 | < 5.00 | 2.61 | 7.86 | 7.69 | O=C1C(=O)N(Cc2ccccc2)c2ccc(S(=O)(=O)N3CCC[C@H]3CF)cc21 |
